Data published in patent US8426447B2, “Spiro-tricyclic ring compounds as beta-secretase modulators and methods of use” (Amgen Inc., priority 2008, dated 2013).
Each block holds one compound with its values, some of them ahead of it.

How the values were obtained:
BACE1 [1] = molecular target: T1, BACE1 (Homo sapiens, UniProt P56817); test: In Vitro BACE Cell-based Assay (HEK cell assay): Aβ40 in conditioned medium of cells stably expressing Amyloid Precursor Protein, sandwich ELISA; settings: read-out: HEK cell assay
T1 sequence (P56817 46-501, species assumed): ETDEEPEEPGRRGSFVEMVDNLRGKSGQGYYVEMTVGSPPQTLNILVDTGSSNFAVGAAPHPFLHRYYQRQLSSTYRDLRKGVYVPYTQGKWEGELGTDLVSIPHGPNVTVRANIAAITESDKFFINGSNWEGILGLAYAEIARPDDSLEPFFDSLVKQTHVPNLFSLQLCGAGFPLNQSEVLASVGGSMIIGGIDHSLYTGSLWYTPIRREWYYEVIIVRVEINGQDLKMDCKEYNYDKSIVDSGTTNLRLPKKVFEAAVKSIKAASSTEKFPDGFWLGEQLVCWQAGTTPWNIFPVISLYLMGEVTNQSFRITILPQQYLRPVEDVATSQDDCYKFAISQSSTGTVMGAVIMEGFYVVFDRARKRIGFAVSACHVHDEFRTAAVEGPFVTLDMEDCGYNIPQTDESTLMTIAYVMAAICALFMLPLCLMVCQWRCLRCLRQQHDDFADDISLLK
Summary of the method: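 First, APP-stable cells grow 24 h at 37° C., 5% CO2. Next, test compounds are added for 24 h (10 doses, 0.1% DMSO). Finally, medium Aβ40 is determined by pAb40/6E10 sandwich ELISA with Europium TRF, and IC50 is calculated.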

BACE1 [2] = molecular target: T1, BACE1; test: In Vitro Enzymatic BACE FRET (Fluorescence Resonance Energy Transfer) Assay; format: biochemical; settings: read-out: BACE1 FRET assay
Summary of the method: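 Run in 0.05 M acetate pH 4.2 with 10% DMSO final and 100 uM genapol detergent below its CMC. Reaction was started with 50 nM FRET peptide substrate (fluorophore and quencher flanking the BACE cleavage site), incubated one hour, stopped with Tris to neutral pH, and fluorescence read.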

[3] = HEK cell-based assay, Aβ40 in conditioned medium, IC50 class symbols
[4] = in vitro BACE FRET enzyme assay, IC50 class symbols
[5] = Table II, Aβ40, 24 h incubation

- IC50 (BACE1 [1]; Table IV, class symbols): < 0.1 µM
- IC50 (BACE1 [2]; Table IV, class symbols): < 0.1 µM
Compound: COCC(=O)Nc1ccc2c(c1)[C@@]1(COC(N)=N1)c1cc(-c3ccccc3)ccc1O2 [compound 533]

- IC50 (BACE1 [1]; Table III, IC50's in uM ranges): 1 to 5 µM
- IC50 (BACE1 [2]; Table III, IC50's in uM ranges): 0.1 to 1 µM
Compound: CC(C)(C)COc1ccc2c(c1)[C@]1(COC(N)=N1)c1cc(-c3csc(-n4ccnc4)n3)ccc1O2 [compound 214]

- IC50 (BACE1 [1]): 1 to 5 µM
- IC50 (BACE1 [2]): 0.1 to 1 µM
Compound: CC(C)(C)COc1ccc2c(c1)[C@]1(COC(N)=N1)c1cc(C3CC3)ccc1O2 [compound 759]

- IC50 (BACE1 [1]; Table III, IC50's in uM ranges): 0.1 to 1 µM
- IC50 (BACE1 [2]; Table III, IC50's in uM ranges): > 5 µM
Compound: NC1=N[C@@]2(CO1)c1cc(Br)ccc1Oc1ccc(Oc3ccccn3)cc12 [compound 206]

- IC50 (BACE1 [1]): 1 to 5 µM
- IC50 (BACE1 [2]): < 0.1 µM
Compound: CSc1ccc(-c2ccc3c(c2)[C@]2(COC(N)=N2)c2cc(OCC(C)(C)C)ccc2O3)cc1 [compound 787]

- IC50 (BACE1 [1]; [5]): 1 to 5 µM
- IC50 (BACE1 [2]; Table II): < 0.1 µM
Compound: CC(C)(C)COc1ccc2c(c1)[C@]1(COC(N)=N1)c1cc(-c3ccoc3)ccc1O2 [Example 76, (4S)-2′-(2,2-dimethylpropoxy)-7′-(3-furanyl)spiro[1,3-oxazole-4,9′-xanthen]-2-amine]

- IC50 (BACE1 [1]; Table IV, class symbols): < 0.1 µM
- IC50 (BACE1 [2]; Table IV, class symbols): < 0.1 µM
Compound: COC(C)(C)COc1ccc2c(c1)[C@@]1(COC(N)=N1)c1cc(-c3ccccc3)cnc1O2 [compound 818]

- IC50 (BACE1 [1]; Table III, IC50's in uM ranges): < 0.1 µM
- IC50 (BACE1 [2]; Table III, IC50's in uM ranges): < 0.1 µM
Compound: COC(C)(C)CCc1ccc2c(c1)[C@]1(COC(N)=N1)c1cc(-c3cncnc3)ccc1O2 [Example 122, (R)-2′-(3-methoxy-3-methylbutyl)-7′-(pyrimidin-5-yl)-5H-spiro[oxazole-4,9′-xanthen]-2-amine]

- IC50 (BACE1 [1]; HEK cells): < 0.1 µM
- IC50 (BACE1 [2]): < 0.1 µM
Compound: CC(C)(C)CCc1cc2c(cn1)Oc1ccc(-c3cncnc3)cc1[C@@]21COC(N)=N1 [compound 455]

- IC50 (BACE1 [1]; Table 1, Aβ40, 24 h incubation): > 5 µM
- IC50 (BACE1 [2]; Table 1): 1 to 5 µM
Compound: COc1ccc2c(c1)C1(COC(N)=N1)c1cc(-c3cccnc3Cl)ccc1O2 (centres unmarked) [Example 21, 2′-(2-chloro-3-pyridinyl)-7′-methoxyspiro[1,3-oxazole-4,9′-xanthen]-2-amine trifluoroacetic acid]

- IC50 (BACE1 [1]; Table IV, class symbols): 0.1 to 1 µM
- IC50 (BACE1 [2]; Table IV, class symbols): < 0.1 µM
Compound: CC(C)(C)C#Cc1ccc2c(c1)[C@]1(COC(N)=N1)c1cc(-c3cccnc3)ncc1O2 [compound 824]

- IC50 (BACE1 [1]; [5]): 0.1 to 1 µM
- IC50 (BACE1 [2]; Table II): < 0.1 µM
Compound: CC(C)(C)COc1ccc2c(c1)[C@]1(COC(N)=N1)c1cc(C#CC3CC3)ccc1O2 [Example 40, (4S)-2′-(cyclopropylethynyl)-7′-(2,2-dimethylpropoxy)spiro[1,3-oxazole-4,9′-xanthen]-2-amine]

- IC50 (BACE1 [1]; Table IV, class symbols): > 5 µM
- IC50 (BACE1 [2]; Table IV, class symbols): 0.1 to 1 µM
Compound: Cc1nc(C)c(-c2ccc3c(c2)[C@@]2(COC(N)=N2)c2cc(OCC(C)(C)C)ccc2O3)s1 [compound 837]

- IC50 (BACE1 [1]; Table IV, class symbols): 1 to 5 µM
- IC50 (BACE1 [2]; Table IV, class symbols): 1 to 5 µM
Compound: CC(=O)c1cc(-c2ccc3c(c2)[C@@]2(COC(N)=N2)c2cc(OCC(C)(C)C)ccc2O3)cs1 [compound 836]

- IC50 (BACE1 [1]; Table IV, class symbols): > 5 µM
- IC50 (BACE1 [2]; Table IV, class symbols): 1 to 5 µM
Compound: COc1ccc2c(c1)[C@]1(COC(N)=N1)c1cc(C#CC(C)(C)OC)cnc1O2 [compound 901]

- IC50 (BACE1 [1]; Table IV, class symbols): > 5 µM
- IC50 (BACE1 [2]; Table IV, class symbols): 1 to 5 µM
Compound: COc1ccc2c(c1)[C@]1(COC(N)=N1)c1cc(NC(=O)c3cc(Cl)ccn3)ccc1O2 [compound 534]

- IC50 (BACE1 [1]; Table III, IC50's in uM ranges): 0.1 to 1 µM
- IC50 (BACE1 [2]; Table III, IC50's in uM ranges): 0.1 to 1 µM
Compound: CC(C)(C)COc1ccc2c(c1)[C@]1(COC(N)=N1)c1cc(C(=O)N3CCCC3)ccc1O2 [218b]

- IC50 (BACE1 [1]; [5]): 1 to 5 µM
- IC50 (BACE1 [2]; Table II): < 0.1 µM
Compound: CC(C)(C)COc1ccc2c(c1)[C@@]1(COC(N)=N1)c1cc(-c3cc(Cl)ccc3F)cnc1O2 [Example 90, (5S)-3-(5-chloro-2-fluorophenyl)-7-(2,2-dimethylpropoxy)spiro[chromeno[2,3-b]pyridine-5,4′-[1,3]oxazol]-2′-amine]

More lines, now with the values behind:

Compound: C[C@](O)(C#Cc1ccc2c(c1)[C@]1(COC(N)=N1)c1cc(-c3cccnc3)ccc1O2)C(F)(F)F [compound 698]
- IC50 (BACE1 [1]): < 0.1 µM
- IC50 (BACE1 [2]): < 0.1 µM

Compound: CC1(C)CN(c2cc(F)c3c(c2)[C@]2(COC(N)=N2)c2cc(-c4cncnc4)ccc2O3)CCO1 [compound 505]
- IC50 (BACE1 [1]; HEK cells): < 0.1 µM
- IC50 (BACE1 [2]): < 0.1 µM

Compound: NC1=N[C@@]2(CO1)c1cc(-c3cc(Cl)ccc3F)ccc1Oc1ncc(C3CCOCC3)cc12 [compound 404]
- IC50 (BACE1 [1]; [3]): < 0.1 µM
- IC50 (BACE1 [2]; [4]): < 0.1 µM

Compound: NC1=N[C@@]2(CO1)c1cc(-c3cncnc3)ccc1Oc1ncc(C#CC3CC3)cc12 [compound 742]
- IC50 (BACE1 [1]): < 0.1 µM
- IC50 (BACE1 [2]): < 0.1 µM

Compound: CC1(C)C=C(c2cnc3c(c2)[C@]2(COC(N)=N2)c2cc(-c4cccnc4)ccc2O3)CCO1 [compound 481]
- IC50 (BACE1 [1]; HEK cells): < 0.1 µM
- IC50 (BACE1 [2]): < 0.1 µM

Compound: COC1CN(c2cnc3c(c2)[C@]2(COC(N)=N2)c2cc(-c4cc(F)ccc4F)ccc2O3)C1 [compound 456]
- IC50 (BACE1 [1]; HEK cells): < 0.1 µM
- IC50 (BACE1 [2]): < 0.1 µM

Compound: NC1=N[C@@]2(CO1)c1cc(-c3cccnc3)ccc1Oc1cnc(Cl)cc12 [compound 676]
- IC50 (BACE1 [1]): 1 to 5 µM
- IC50 (BACE1 [2]): 0.1 to 1 µM

Compound: COC(=O)/C=C/c1ccc2c(c1)[C@@]1(COC(N)=N1)c1cc(-c3cccnc3)ccc1O2 [compound 918]
- IC50 (BACE1 [1]; Table IV, class symbols): 0.1 to 1 µM
- IC50 (BACE1 [2]; Table IV, class symbols): 0.1 to 1 µM

Compound: NC1=N[C@]2(CO1)c1ccccc1Oc1ccc(-c3cccc4ncccc34)cc12 [compound 627]
- IC50 (BACE1 [1]; Table IV, class symbols): > 5 µM
- IC50 (BACE1 [2]; Table IV, class symbols): > 5 µM

Compound: NC1=N[C@@]2(CO1)c1cc(-c3cccnc3)ccc1Oc1ccc(Cl)nc12 [compound 393]
- IC50 (BACE1 [1]; [3]): 1 to 5 µM
- IC50 (BACE1 [2]; [4]): 0.1 to 1 µM

Compound: NC1=N[C@]2(CO1)c1cc(C3=CCNCC3)ccc1Oc1ccc(-c3cccnc3)cc12 [compound 810]
- IC50 (BACE1 [1]; Table IV, class symbols): < 0.1 µM
- IC50 (BACE1 [2]; Table IV, class symbols): < 0.1 µM

Compound: CC1(COc2cnc3c(c2)[C@]2(COC(N)=N2)c2cc(-c4ccccc4)ccc2O3)COC1 [compound 459]
- IC50 (BACE1 [1]; HEK cells): < 0.1 µM
- IC50 (BACE1 [2]): < 0.1 µM

Compound: COC(C)(C)C#Cc1cnc2c(c1)[C@@]1(COC(N)=N1)c1cc(-c3ccncc3)ccc1O2 [compound 692]
- IC50 (BACE1 [1]): > 5 µM
- IC50 (BACE1 [2]): > 5 µM

Compound: NC1=N[C@@]2(CO1)c1cc(-c3cccnc3)ccc1Oc1cc(F)c(C3=CCOCC3)cc12 [compound 476]
- IC50 (BACE1 [1]; HEK cells): < 0.1 µM
- IC50 (BACE1 [2]): < 0.1 µM

Compound: CC1(COc2ccc3c(c2)[C@]2(COC(N)=N2)c2cc(-c4cccnc4)cnc2O3)COC1 [compound 165]
- IC50 (BACE1 [1]; Table III, IC50's in uM ranges): < 0.1 µM
- IC50 (BACE1 [2]; Table III, IC50's in uM ranges): < 0.1 µM

Compound: COc1ccc2c(c1)[C@]1(N=C(N)O[C@H]1C)c1cc(-c3cncnc3)ccc1O2 (single isomer, unassigned) [Example 125a]
- IC50 (BACE1 [1]; Table III, IC50's in uM ranges): > 5 µM
- IC50 (BACE1 [2]; Table III, IC50's in uM ranges): > 5 µM

Compound: C[Si](C)(C)C#Cc1cnc2c(c1)[C@]1(COC(N)=N1)c1cc(-c3cccnc3)ccc1O2 [compound 348]
- IC50 (BACE1 [1]; [3]): < 0.1 µM
- IC50 (BACE1 [2]; [4]): < 0.1 µM

Compound: Cn1cc(-c2cc3c(cn2)Oc2ccc(-c4cccc(Cl)c4)cc2[C@@]32COC(N)=N2)cn1 [compound 329]
- IC50 (BACE1 [1]; [3]): < 0.1 µM
- IC50 (BACE1 [2]; [4]): < 0.1 µM

Compound: NC1=N[C@@]2(CO1)c1cc(Br)ccc1Oc1cnc(Cl)cc12 [compound 548]
- IC50 (BACE1 [1]; Table IV, class symbols): > 5 µM
- IC50 (BACE1 [2]; Table IV, class symbols): > 5 µM

Compound: NC1=NC2(CO1)c1cc(-c3cccnc3)ccc1Oc1ncc(-c3cccnc3)cc12 (centres unmarked) [Example 113, 3,7-di-3-pyridinylspiro[chromeno[2,3-b]pyridine-5,4′-[1,3]oxazol]-2′-amine]
- IC50 (BACE1 [1]; Table III, IC50's in uM ranges): < 0.1 µM
- IC50 (BACE1 [2]; Table III, IC50's in uM ranges): < 0.1 µM

Compound: COC(C)(C)C#Cc1cnc2c(c1)[C@]1(COC(N)=N1)c1cc(-c3ccnc(F)c3)ccc1O2 [compound 687]
- IC50 (BACE1 [1]): > 5 µM
- IC50 (BACE1 [2]): 1 to 5 µM

Compound: COc1ccc(F)c(-c2ccc3c(c2)C2(COC(N)=N2)c2ccc(C)cc2O3)c1 (centres unmarked) [Example 19, 2′-(2-fluoro-5-methoxyphenyl)-6′-methylspiro[1,3-oxazole-4,9′-xanthen]-2-amine]
- IC50 (BACE1 [1]; Table 1, Aβ40, 24 h incubation): 0.1 to 1 µM
- IC50 (BACE1 [2]; Table 1): 1 to 5 µM
